From patent US8388953B2, “Method of increasing cathepsin B-induced cleavage of amyloid-β peptides” (The J. David Gladstone Institutes, priority 2006, dated 2013)

Experiments:
Aβ1-42 = experiment: In vitro cleavage assay of Aβ1-42 by purified CatB (SELDI-TOF MS, western blot, electron microscopy); format: biochemical
Procedure: (§1) Aβ1-42 and Aβ1-40 were from rPeptide (Athens, Ga.). Aβ powders lyophilized with hexafluoroisopropanol were reconstituted in dry dimethylsulfoxide (Sigma) at a concentration of 5 mM. Aggregated Aβ1-42 was prepared based on protocols developed in previous studies (Dahlgren et al., 2002; Lambert et al., 1998). For protofibrillar Aβ1-42 preparations, DMEM/F-12 was added to achieve a final peptide concentration of 100 μM and incubated at 4° C. for 24 h. For fibrillar conditions, 10 mM HCl was added to achieve a final peptide concentration of 100 μM and incubated for 24 h at 37° C. For unaggregated conditions (fresh Aβ), the 5 mM Aβ in […] was diluted directly into cell-culture medium. For Aβ1-40 aggregation, Aβ1-40 was reconstituted in H2O at a concentration of 5 mg/ml, and incubated for one week at 37° C.
Aβ1-42 and Aβ1-40 samples were characterized by negative-staining electron microscopy (JEOL 1230, Peabody, Mass.). Samples were prepared with “matured” carbon-coated grids and 2% potassium phosphotungstate, pH 6.5, using the drop method (Hamilton et al., 1980), and examined at 80 KV with a condenser aperture of 200 μm and an objective aperture of 50 μm. Images were obtained with a Gatan Ultrascan USC1000 digital camera (Gatan, Warrendale, Pa.).
(§2) Different amounts of purified CatB from human liver (Sigma) were preactivated with 4 mM cysteine at room temperature for 5 min in assay buffer, pH 6.0 or 7.0 after adjustment (Cathepsin B Activity Assay Kit, EMD Biosciences). Then, 20 ng of fresh, protofibrillar, or fibrillar Aβ1-42 was added and incubated at 37° C. for 120 min. All samples were run in parallel with and without the specific CatB inhibitor CA074. CatB-induced peptidase cleavage of Aβ1-42 was detected with mass spectrometry. Briefly, 5 μl of the reaction mixture was applied to an NP-20 normal-phase chip (Ciphergen Biosystems, Fremont, Calif.), and the spots were washed with water and air-dried. Twenty percent α-cyano-4-hydroxycinnamic acid in 50% acetonitrile, 0.5% trifluoroacetic acid (2×0.5 μl) was applied, and the chips were allowed to dry. Samples were analyzed in a PBS ITC SELDI-TOF mass spectrometer (Ciphergen) as an average of 160 shots for each spot. The system was calibrated daily with All-in-One peptide standards (Ciphergen) and synthetic Aβ1-42.
(§3) The products were also analyzed by western blotting on acid-urea gels with an anti-Aβ antibody (3D6) as described (DeMattos et al., 2001; Esposito et al., 2004) or on a Tricine SDS-PAGE. Briefly, 10 μl of the reaction mixture were resolved on 16% tricine gels and transferred to nitrocellulose membranes. Membranes were labeled with 21F12 (1:2000, Elan Pharmaceuticals), an antibody specific for Aβ1-42, to detect low MW Aβ1-42 oligomers. Since 21F12 was unable to detect higher MW assemblies, 3D6 (1:2000, Elan) was also used for immunoblotting. After incubation with an HRP-conjugated sheep anti-mouse IgG (1:2000; Amersham) secondary antibody, blots were developed with an ECL system (Perkin Elmer).

[1] = tested on: cathepsin B activity in neuronal cells (N2a); experiment: CatB activity assay in N2a cells treated with indomethacin; format: cell-based, murine; settings: indomethacin 25 μM-75 μM, 18-24 h
Procedure: (§4) Unless otherwise noted, all cell culture supplies, medium, and antibiotics were from Invitrogen (Carlsbad, Calif.). The murine neuronal cell line N2A was maintained in Dulbecco's modified Eagle's medium (DMEM) with 10% heat-inactivated fetal bovine serum (FBS), 100 U/ml penicillin G, and 100 μg/ml streptomycin at 37° C. in a humidified atmosphere containing 5% CO2. Before treatment, the medium was replaced with Neurobasal A medium supplemented with N2, and the cells were treated with fresh Aβ1-42 or Aβ1-40 at various concentrations for 24 h.
(§5) CatB activities in N2A cells or in hippocampus of hAPP mice and their littermate controls were quantified with the Innozyme Cathepsin B Activity Assay Kit (EMD Biosciences), according to the manufacturer's instructions. Cells or hippocampi were lysed in lysis buffer in the absence of proteinase inhibitors, preactivated with 4 mM cysteine, and incubated with the synthetic substrate Z-Arg-Arg AMC at 37° C. for 30 min. Released free AMC was determined fluorometrically as above. The enzymatic activities inhibited by CA074 were defined as CatB-specific activities. Protein concentrations were measured with the BCA protein assay kit (Pierce) and used to normalize CatB activities.
Neurobiatoma cell N2a cells were treated with indomethacin (25 μM-75 μM) for 18-24 h before being harvested for CatB activity assay.

CatB in N2A cells = experiment: N2A cells treated with Aβ peptides: CatB mRNA (quantitative RT-PCR) and CatB activity; format: cell-based, murine; settings: 20 μM; for CatB enzymatic activities / CatB mRNA levels: nonaggregated peptide, 24 h
Procedure: as §4, §1, §5
Expression of CatB was measured by quantitative RT-PCR. Total RNA in N2A cells was isolated with Trizol reagent (Invitrogen). After treatment with RNase-free DNase (Ambion) for 30 min at 37° C., total RNA (60 ng/ml) was reverse-transcribed with random hexamers and oligo d(T) primers. The expression of CatB relative to GAPDH was determined with SYBR green dye chemistry and an ABI Prism 7700 sequence detector (Applied Biosystems, Foster City, Calif.), as recommended by the manufacturer. Primer quality was verified by dissociation curve analysis, the slopes of standard curves, and reactions without RT. The following primers were used: mouse CatB (forward 5′-[…]-3′ (SEQ ID NO:7); reverse 5′-[…]-3′ (SEQ ID NO:8)) and mouse GAPDH (forward 5′-[…]-3′ (SEQ ID NO:9); reverse 5′-[…]-3′ (SEQ ID NO:10)).

[2] = molecular target: T1, purified CatB from human liver (Homo sapiens, UniProt P07858); experiment: Inhibition of CatB-induced Aβ1-42 cleavage by CA074 in the in vitro cleavage assay; format: biochemical
T1 construct: purified CatB from human liver (Sigma); purchased Sigma; host or cells: human liver (tissue-purified)
Procedure: as §2, §3

CatB: purified CatB from human liver (Sigma), preactivated with cysteine
amounts of high-molecular-weight Aβ assemblies (Aβ1-42; Tricine SDS-PAGE, CatB 1-2 μg/ml): marked decrease | levels of low-MW Aβ1-42 oligomers and monomers (Aβ1-42; Tricine SDS-PAGE, antibody specific for Aβ1-42): also reduced | proteolytic products from fresh (nonaggregated) Aβ1-42 (Aβ1-42; cell-free, pH 6.0, CatB 100-2500 ng/ml, SELDI-TOF): dose-dependent generation of Aβ1-40, Aβ1-38, and Aβ1-33 | amount of fibrillar structures of preformed Aβ1-42 fibrils (Aβ1-42; electron microscopy): did reduce the amount of fibrillar structures | ability to cleave Aβ, especially nonaggregated (fresh) Aβ (Aβ1-42; neutral pH (~7.0)): markedly reduced | cleavage of protofibrillar Aβ1-42 (Aβ1-42; pH 6.0): cleaved by CatB as efficiently as nonaggregated preparations

COc1ccc2c(c1)c(CC(=O)O)c(C)n2C(=O)c1ccc(Cl)cc1 [indomethacin]
CatB activity [1]: significant increase in CatB activity in a dose-dependent manner

Aβ1-40: amyloid-β peptide 1-40 from rPeptide; tested nonaggregated and preaggregated
CatB enzymatic activities (CatB in N2A cells): little or no effect | CatB mRNA levels (CatB in N2A cells): little or no effect | CatB activity (CatB in N2A cells; preaggregated peptide): modest but significant increase

Aβ1-42: amyloid-β peptide 1-42 from rPeptide
CatB enzymatic activities (CatB in N2A cells): markedly increased | CatB mRNA levels (CatB in N2A cells): markedly increased

CCCNC(=O)[C@H]1O[C@@H]1C(=O)N[C@H](C(=O)N1CCC[C@H]1C(=O)O)[C@@H](C)CC [CA074]
effect of the inhibitor on CatB-induced decrease of Aβ assemblies ([2]; Tricine SDS-PAGE): significantly diminished such effects | effect of the inhibitor on CatB-induced reduction of Aβ1-42 fibrils ([2]; electron microscopy): inhibition with CA074 | CatB-induced truncations of Aβ1-42 in the presence of the inhibitor ([2]; pH 6.0, SELDI-TOF): No truncations occurred
